{"source": "patent US8287893B2", "about": "“Bioactive agrichemical compositions and use thereof” (Sciessent LLC, priority 2007, dated 2012)", "key": {"[1]": {"system": "Saccharomycetes Cerevisiae (Fleishmann's Bakers yeast)", "assay": "Yeast growth suppression, turbidity of yeast suspension in growth medium", "assay_type": "cell-based", "parameters": "key to turbidity T0 / turbidity T18 / change in turbidity T48 − T0 / turbidity T48 / turbidity T72 / turbidity T96 / change in turbidity T18 − T0 / change in turbidity T72 − T0 / change in turbidity T96 − T0: turbidity in NTU", "experimental": "Saccharomycetes Cerevisiae was selected as a test organism as it is generally accepted in the industry as an indicator or surrogate organism for a wide variety of fungi. In each of these experiments, the same general procedure was followed unless otherwise indicated.\nExperimental Detail: A growth medium was prepared by adding 10 grams of nutrient medium (Difco Sabouraud dextrose broth from BD of Franklin Lakes, N.J., USA) to 300 ml of distilled water. Fleishmann's Bakers yeast was then added to the growth medium while mixing using a magnetic stirrer until a uniform dispersion was obtained having an initial turbidity of between about 50 and 100 NTU as measured using a HF Instruments DRT 100B Turbidity Meter. Once the appropriate dispersion was obtained, 20 ml aliquots were then dispensed, with continued mixing, into 40 ml borosilicate glass vials with Teflon lined caps (VWR International Cat. No. 15900-004). The system/component to be evaluated was then added to the vial and intimately shaken to ensure a good, substantially homogeneous mixture. The turbidity of each mixture was then determined and the vial transferred to an incubator at 30° C. Each vial was periodically removed from the incubator and the mixture in the vials assessed for turbidity: the specific timing for such evaluation was as set forth in the discussion of the experiments and the accompanying tables.\nIn each experiment, unless otherwise specified, a 2 ml aqueous solution containing the specified bioactive system or component thereof was added to the 20 ml yeast suspension and mixed thoroughly. Typically the surfactants were added separately in a concentrated solution in water; however, the volume added was negligible: a fraction of an ml. For convenience in understanding efficacy levels, the amounts or concentrations of the various components presented in each of the following tables and experiments are of the diluted material in the test vial: not of the concentrate added to the test vial. Furthermore, the concentrations presented are on the basis of a 20 ml total volume, not the actual 22+ ml volume. Multiplying each of the listed concentrations by 0.9 (or 0.95 with those compositions using 1 ml aqueous solutions) will provide a more accurate assessment of the concentrations of the various components evaluated, i.e., a 5 ppm silver concentration is actually closer to 4.5 ppm. Finally, for those vials to which no bioactive system or component thereof was added (the controls) or which only contained the surfactants, 2 ml of additional growth medium was added to ensure relative equivalent dilutions of the yeast.\nIn the tables below, the results are presented as the actual turbidity readings (NTU) with a sub-table presenting the change or delta in NTU values. Given the nature of the system, changes in turbidity are reflective of the relative performance/bioefficacy of the bioactive systems and their components."}, "E. amylovora 153N": {"system": "E. amylovora 153N", "assay": "Fire blight on Snow Drift crabapple trees (Example 287)", "assay_type": "in vivo", "settings": "for cankers, result in words / shoot blight incidence, result in words: day 63", "experimental": "A study of the bioefficacy of the various agrichemical compositions, including bioactive acid solutions and blends thereof with an antibiotic agrichemical, were evaluated to assess their bioefficacy against fire blight on crabapples. The study was conducted on 5 year old Snow Drift crabapple trees, with each of the compositions being applied to ten trees in two-subplots of five trees, four different times: at 100% bloom-day 1, a second application was made on day 4, a third on day 11 and a final treatment on day 19. The trees were inoculated with E. amylovora […] at a concentration of 4×10^6 cells per milliliter on day 1, following drying of the treatment, with the inoculation being repeated on day 13. Evaluation for fire blight was completed on 100 blossoms for each of the subplots on day 12, day 19 and day 27. Additionally, the incidence of shoot infection and the length of […] evaluated on day 63. The test compositions were prepared by forming solutions of the bioactive agents. Two different dilutions of the MI2 bioactive were evaluated; the first employing 94.46 ml/gallon (25 ml/l) of water (5 ppm of each metal) and the second 188.9 ml/gallon (50 ml/l) of water (10 ppm of each metal). […] Finally, copper hydroxide was diluted at a rate of 1 lb/gallon (119.8 g/l). Each of the compositions and blends were spray applied at a rate of 50 gallons (189.3 l) pre acre. The results are presented as the mean of the counts."}, "[2]": {"settings": "Table 12, surfactant ~0.05 wt % neat, Metal ppm 0"}, "[3]": {"settings": "Table 12, surfactants ~0.05 wt %, Metal ppm 2.5 each of Cu, Ag, Zn, ~0.2% citric acid"}, "[4]": {"settings": "Table 12, surfactants ~0.05 wt %, Metal ppm 5 each of Cu, Ag, Zn, ~0.4% citric acid"}}, "note": "Like-named read-outs stand apart in the source and are kept apart here."}
{"compound": "CCCCCCCCCCCCOS(=O)(=O)[O-].[Na+]", "values": [{"measurement": "change in turbidity T48 − T0", "setting": "[1]; [2]", "result": 610}, {"measurement": "turbidity T0", "setting": "[1]; [2]", "result": 48}, {"measurement": "turbidity T18", "setting": "[1]; [2]", "result": 495}, {"measurement": "change in turbidity T18 − T0", "setting": "[1]; [3]", "result": 2}, {"measurement": "change in turbidity T48 − T0", "setting": "[1]; [3]", "result": 0}, {"measurement": "change in turbidity T72 − T0", "setting": "[1]; [3]", "result": 0}, {"measurement": "change in turbidity T96 − T0", "setting": "[1]; [3]", "result": "−1"}, {"measurement": "turbidity T0", "setting": "[1]; [3]", "result": 88}, {"measurement": "turbidity T18", "setting": "[1]; [3]", "result": 90}, {"measurement": "turbidity T48", "setting": "[1]; [3]", "result": 88}, {"measurement": "turbidity T72", "setting": "[1]; [3]", "result": 88}, {"measurement": "turbidity T96", "setting": "[1]; [3]", "result": 87}, {"measurement": "change in turbidity T18 − T0", "setting": "[1]; [4]", "result": 13}, {"measurement": "change in turbidity T48 − T0", "setting": "[1]; [4]", "result": 2}, {"measurement": "change in turbidity T72 − T0", "setting": "[1]; [4]", "result": 7}, {"measurement": "change in turbidity T96 − T0", "setting": "[1]; [4]", "result": 1}]}
{"compound": "O=C([O-])CC(O)(CC(=O)[O-])C(=O)[O-].[Ag+].[Ag+].[Ag+]", "note": "[Example 1, silver citrate]", "values": [{"measurement": "Change in Turbidity from T0 (delta NTU) Time 1 Hr", "setting": "[1]; Table 1A, 1 hour", "result": 15.1, "unit": "NTU"}, {"measurement": "Change in Turbidity from T0 (delta NTU) T 18 hours", "setting": "[1]; Table 1A, 18 hours", "result": 845.5, "unit": "NTU"}, {"measurement": "Change in Turbidity from T0 (delta NTU) T 24 hours", "setting": "[1]; Table 1A, 24 hours", "result": 887.5, "unit": "NTU"}, {"measurement": "Change in Turbidity from T0 (delta NTU) T 96 Hours", "setting": "[1]; Table 1A, 96 hours", "result": 950.5, "unit": "NTU"}]}
{"compound": "O=C([O-])CC(O)(CC(=O)[O-])C(=O)[O-].O=C([O-])CC(O)(CC(=O)[O-])C(=O)[O-].[Zn+2].[Zn+2].[Zn+2]", "note": "[Example 7, zinc citrate]", "values": [{"measurement": "Change in Turbidity from T0 (delta NTU) T 96 Hours", "setting": "[1]", "result": 1007.2, "unit": "NTU"}, {"measurement": "Change in Turbidity from T0 (delta NTU) T 18 hours", "setting": "[1]", "result": 948.2, "unit": "NTU"}, {"measurement": "Change in Turbidity from T0 (delta NTU) T 24 hours", "setting": "[1]", "result": 949.2, "unit": "NTU"}, {"measurement": "Change in Turbidity from T0 (delta NTU) Time 1 Hr", "setting": "[1]", "result": 20.7, "unit": "NTU"}]}
{"compound": "[Cu+2].[OH-].[OH-]", "note": "[copper hydroxide]", "values": [{"measurement": "Shoot Incidence", "setting": "E. amylovora 153N; Day 63, rate 5 lbs/a (2.27 kg/a), mean of the counts", "result": 1.0}, {"measurement": "cankers, result in words", "setting": "E. amylovora 153N", "result": "appeared to prevent canker"}, {"measurement": "shoot blight incidence, result in words", "setting": "E. amylovora 153N", "result": "greatly reduced"}]}
{"compound": "[H]/N=C(/N)N[C@H]1[C@H](O)[C@@H](O)[C@H](O[C@@H]2O[C@@H](C)[C@](O)(C=O)[C@H]2O[C@@H]2O[C@@H](CO)[C@H](O)[C@@H](O)[C@@H]2NC)[C@@H](N/C(N)=N\\[H])[C@@H]1O", "note": "[streptomycin]", "values": [{"measurement": "cankers, result in words", "setting": "E. amylovora 153N", "result": "appeared to prevent canker"}, {"measurement": "shoot blight incidence, result in words", "setting": "E. amylovora 153N", "result": "greatly reduced"}]}
{"compound": "copper citrate [Example 13]", "values": [{"measurement": "Change in Turbidity from T0 (delta NTU) T 96 Hours", "setting": "[1]", "result": 1054.4, "unit": "NTU"}, {"measurement": "Change in Turbidity from T0 (delta NTU) T 18 hours", "setting": "[1]", "result": 894.4, "unit": "NTU"}, {"measurement": "Change in Turbidity from T0 (delta NTU) T 24 hours", "setting": "[1]", "result": 975.4, "unit": "NTU"}, {"measurement": "Change in Turbidity from T0 (delta NTU) Time 1 Hr", "setting": "[1]", "result": 22.4, "unit": "NTU"}]}
